The term IC50 denotes the midpoint of a concentration-inhibition curve. Lower therefore signals inhibition by little substance.

The structures appear in SMILES notation.

In experiment [1] the target is T1, Gonadotropin-releasing hormone receptor (Homo sapiens, UniProt P30968).
T1 sequence (P30968 whole entry): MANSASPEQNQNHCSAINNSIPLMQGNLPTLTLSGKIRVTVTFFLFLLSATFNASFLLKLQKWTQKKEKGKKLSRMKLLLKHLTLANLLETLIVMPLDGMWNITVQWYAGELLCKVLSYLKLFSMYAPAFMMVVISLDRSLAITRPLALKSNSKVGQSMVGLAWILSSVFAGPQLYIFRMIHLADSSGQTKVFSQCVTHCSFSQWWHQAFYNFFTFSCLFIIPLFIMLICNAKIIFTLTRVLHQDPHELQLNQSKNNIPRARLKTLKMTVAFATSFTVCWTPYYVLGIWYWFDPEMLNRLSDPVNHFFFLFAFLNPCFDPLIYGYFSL
Kind of experiment: Inhibition of GnRH-stimulated phosphatidylinositol (PI) hydrolysis in cloned chinese hamster ovary (CHO) cells expressing human GnRH receptor. It counts as functional, cell-based.

Experiment [2] deals with T2, Gonadotropin-releasing hormone receptor (Rattus norvegicus, UniProt P30969).
T2 sequence (P30969 whole entry): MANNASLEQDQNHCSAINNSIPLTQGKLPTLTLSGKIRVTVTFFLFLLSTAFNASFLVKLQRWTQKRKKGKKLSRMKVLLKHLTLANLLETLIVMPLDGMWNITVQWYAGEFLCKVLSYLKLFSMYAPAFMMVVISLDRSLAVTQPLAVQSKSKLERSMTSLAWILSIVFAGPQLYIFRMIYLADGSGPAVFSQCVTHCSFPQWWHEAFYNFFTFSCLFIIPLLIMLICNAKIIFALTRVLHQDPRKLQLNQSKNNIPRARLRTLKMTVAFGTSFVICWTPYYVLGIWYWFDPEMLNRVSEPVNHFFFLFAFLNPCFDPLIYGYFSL
Nature of the experiment: Inhibition of [125I]buserelin binding to rat Gonadotropin-releasing hormone receptor.

The target of experiment [3] is T2, Gonadotropin-releasing hormone receptor. Kind of experiment: Inhibition of GnRH-stimulated luteinizing hormone (LH) release in rat pituitary cells. It counts as functional, cell-based, Pituitary gland cell.
The target in experiment [4] is T1, Gonadotropin-releasing hormone receptor. Kind of experiment: Inhibition of [125I]buserelin binding to human Gonadotropin-releasing hormone receptor.
The target in experiment [5] is T2, Gonadotropin-releasing hormone receptor. Kind of experiment: Compound tested for the inhibition of GnRH-stimulated luteinizing hormone (LH) release in rat pituitary cells. It counts as functional, cell-based, Pituitary gland cell.
For experiment [6], the target named is Gonadotropin-releasing hormone receptor (Homo sapiens) (UniProt P30968). Nature of the experiment: Inhibition of [125I]buserelin binding to human Gonadotropin-releasing hormone receptor.

With `CCN(C(=O)c1ccc2[nH]c(-c3cc(C)cc(C)c3)c(CCNCCCCc3cccnc3)c2c1)C1CCCCC1`, the IC50 in experiment [1] worked out at 16 nM; in experiment [2], 0.2 nM; in experiment [3], 140 nM; in experiment [4] it was 2.3 nM.
Turning to `Cc1cc(C)cc(-c2[nH]c3ccc(C(=O)N(CC(C)C)CC(C)C)cc3c2CCNCCCCc2cccnc2)c1`, the IC50 in experiment [1] came out at 120 nM; in experiment [2], 0.7 nM; in experiment [3] it was 150 nM; in experiment [4] it was 5 nM.
For `CCN(CC)C(=O)c1ccc2[nH]c(-c3cc(C)cc(C)c3)c(CCNCCCCc3ccncc3)c2c1` the same measures were 12 nM, 0.5 nM, 470 nM and 18 nM.
As for `Cc1cc(C)cc(-c2[nH]c3ccc(C(C)(C)C(=O)N4CCCC4)cc3c2CCNCCCCc2ccncc2)c1`, the IC50 was 340 nM in experiment [5] and 4.8 nM in experiment [6].
Regarding `CCN(C(=O)c1ccc2[nH]c(-c3cc(C)cc(C)c3)c(CCNCCCCc3ccncc3)c2c1)C1CCCCC1`, the IC50 in experiment [1] was 22 nM; in experiment [2], 0.4 nM; in experiment [3] it was 130 nM; in experiment [4], 2.8 nM.
